These are literature values, as cited in patent US20070066591A1, “Compounds, compositions, and methods” (priority 2003, published 2007).

The series deals with A549 cells. As to conditions: data provided by National Cancer Institute, Developmental Therapeutic Program.
The GI50 is the concentration at which growth is held to half of that of the control. `O=c1[nH]cc(F)c(=O)[nH]1` [5-fluorouracil]: the GI50 is 1000 nM.

In the case of `COc1cccc2c1C(=O)c1c(O)c3c(c(O)c1C2=O)C[C@@](O)(C(=O)CO)C[C@@H]3O[C@H]1C[C@H](N)[C@H](O)[C@H](C)O1` [doxorubicin], the GI50 was 63 nM.

Consider `NC(=O)NO` [hydroxyurea], for which the GI50 is 500000 nM.

Regarding `CC(=O)O[C@H]1C(=O)[C@@]2(C)[C@H]([C@H](OC(=O)c3ccccc3)[C@]3(O)C[C@H](OC(=O)[C@H](O)[C@@H](NC(=O)c4ccccc4)c4ccccc4)C(C)=C1C3(C)C)[C@]1(OC(C)=O)CO[C@@H]1C[C@@H]2O` [paclitaxel], the GI50 is 4 nM.
